Test results: the supplement of paper PMC13380429

Tests used:
Conditions in all cases: 72 h
U2OS [1] = test: cell viability relative to DMSO; higher = less toxic
Caco-2 [2] = test: as above
HepG2 [3] = test: as above
Calu-3 [4] = test: as above
Vero E6 [5] = test: as above
U2OS [6] = test: drug sensitivity score (DSS) for viability; higher = more toxic; extreme values may be limits of the assay
Caco-2 [7] = test: as above
HepG2 [8] = test: as above
Calu-3 [9] = test: as above
Vero E6 [10] = test: as above
U2OS [11] = test: relative viability EC50 (midpoint between 100% and the lowest measured viability); higher = less toxic
Caco-2 [12] = test: as above
HepG2 [13] = test: as above
Calu-3 [14] = test: as above
Vero E6 [15] = test: as above

| SMILES | cell viability (U2OS [1]; 1 nM) [%] | cell viability (U2OS [1]; 10 nM) [%] | cell viability (U2OS [1]; 100 nM) [%] | cell viability (U2OS [1]; 1000 nM) [%] | cell viability (U2OS [1]; 10000 nM) [%] | cell viability (Caco-2 [2]; 1 nM) [%] | cell viability (Caco-2 [2]; 10 nM) [%] | cell viability (Caco-2 [2]; 100 nM) [%] | cell viability (Caco-2 [2]; 1000 nM) [%] | cell viability (Caco-2 [2]; 10000 nM) [%] | cell viability (HepG2 [3]; 1 nM) [%] | cell viability (HepG2 [3]; 10 nM) [%] | cell viability (HepG2 [3]; 100 nM) [%] | cell viability (HepG2 [3]; 1000 nM) [%] | cell viability (HepG2 [3]; 10000 nM) [%] | cell viability (Calu-3 [4]; 1 nM) [%] | cell viability (Calu-3 [4]; 10 nM) [%] | cell viability (Calu-3 [4]; 100 nM) [%] | cell viability (Calu-3 [4]; 1000 nM) [%] | cell viability (Calu-3 [4]; 10000 nM) [%] | cell viability (Vero E6 [5]; 1 nM) [%] | cell viability (Vero E6 [5]; 10 nM) [%] | cell viability (Vero E6 [5]; 100 nM) [%] | cell viability (Vero E6 [5]; 1000 nM) [%] | cell viability (Vero E6 [5]; 10000 nM) [%] | drug sensitivity score (U2OS [6]) | drug sensitivity score (Caco-2 [7]) | drug sensitivity score (HepG2 [8]) | drug sensitivity score (Calu-3 [9]) | drug sensitivity score (Vero E6 [10]) | relative viability EC50 (U2OS [11]) [µM] | relative viability EC50 (Caco-2 [12]) [µM] | relative viability EC50 (HepG2 [13]) [µM] | relative viability EC50 (Calu-3 [14]) [µM] | relative viability EC50 (Vero E6 [15]) [µM] |
| --- | --- | --- | --- | --- | --- | --- | --- | --- | --- | --- | --- | --- | --- | --- | --- | --- | --- | --- | --- | --- | --- | --- | --- | --- | --- | --- | --- | --- | --- | --- | --- | --- | --- | --- | --- |
| Clc1ccc(CO/N=C(\Cn2ccnc2)c2ccc(Cl)cc2Cl)c(Cl)c1 [oxiconazole] | 100 | 97.3 | 97.6 | 91.1 | 92 | 106 | 94.8 | 99.8 | 90 | 83.5 | 97.4 | 103 | 105 | 98.5 | 89.7 | 97.5 | 87.3 | 83.4 | 94.8 | 103 | 99.9 | 105 | 95.4 | 102 | 95.5 | 0 | 1.1 | 0 | 0 | 0 | > 10 | > 10 | > 10 | > 10 | > 10 |
| C=CCOc1ccccc1OCC(O)CNC(C)C (stereo not given) [oxprenolol] | 106 | 97.7 | 99.8 | 101 | 102 | 102 | 91.5 | 98 | 91.2 | 97.9 | 97.4 | 97.8 | 93.3 | 113 | 107 | 111 | 90.8 | 108 | 93.2 | 103 | 98.6 | 104 | 102 | 106 | 98.6 | 0 | 0 | 0 | 0 | 0 | > 10 | > 10 | > 10 | > 10 | > 10 |
| Cc1ccc(S(N)(=O)=O)cc1 [para-toluenesulfonamide] | 100 | 96 | 97.7 | 102 | 104 | 103 | 99.2 | 98.1 | 98.9 | 100 | 105 | 107 | 110 | 94.4 | 120 | 102 | 94.8 | 91.1 | 91.8 | 95.9 | 102 | 94.6 | 98.4 | 99.2 | 103 | 0 | 0 | 0 | 0 | 0 | > 10 | > 10 | > 10 | > 10 | > 10 |
| CC1(C)S[C@@H]2[C@H](NC(=O)COc3ccccc3)C(=O)N2[C@H]1C(=O)O [penicillin-v-potassium] | 101 | 96.4 | 99.8 | 97 | 98.7 | 97.5 | 95.6 | 94.3 | 92.7 | 90 | 105 | 105 | 103 | 94.9 | 97.4 | 91.3 | 97.1 | 101 | 108 | 94.9 | 104 | 101 | 104 | 103 | 96.9 | 0 | 0 | 0 | 0 | 0 | > 10 | > 10 | > 10 | > 10 | > 10 |
| CN1CCN(c2ccc3[nH]c(-c4ccc5[nH]c(-c6ccc(O)cc6)nc5c4)nc3c2)CC1 [pibenzimol] | 103 | 97.2 | 101 | 100 | 93.8 | 98.6 | 88.8 | 98 | 100 | 103 | 101 | 97.4 | 81.2 | 64.1 | 42.7 | 108 | 93.8 | 106 | 116 | 122 | 100 | 100 | 96 | 98.9 | 98.3 | 0 | 0 | 8.8 | 0 | 0 | > 10 | > 10 | 0.35 | > 10 | > 10 |
| CN1CCC(=C2c3ccccc3CCc3sccc32)CC1 [pizotifen] | 94.6 | 95.6 | 101 | 94.4 | 94.6 | 97.6 | 104 | 101 | 107 | 99.2 | 96.2 | 101 | 99.1 | 109 | 101 | 96 | 88.7 | 102 | 91.3 | 98.2 | 98.3 | 98.6 | 97.9 | 100 | 103 | 0 | 0 | 0 | 0 | 0 | > 10 | > 10 | > 10 | > 10 | > 10 |
| CCCN[C@H]1CCc2nc(N)sc2C1 [pramipexole] | 96.2 | 98.2 | 95.5 | 98.6 | 103 | 97.3 | 103 | 99.7 | 96.8 | 107 | 88.2 | 90.8 | 109 | 99.3 | 108 | 91.7 | 111 | 107 | 102 | 110 | 104 | 104 | 105 | 99 | 101 | 0 | 0 | 0 | 0 | 0 | > 10 | > 10 | > 10 | > 10 | > 10 |
| CC(=O)OCC(=O)[C@@]1(O)CC[C@H]2[C@@H]3CCC4=CC(=O)C=C[C@]4(C)[C@H]3[C@@H](O)C[C@@]21C [prednisolone-acetate] | 110 | 106 | 100 | 101 | 97.8 | 110 | 108 | 93.3 | 106 | 85.8 | 107 | 106 | 93.1 | 90.9 | 114 | 99.5 | 92.3 | 82.6 | 87 | 98.1 | 99.5 | 106 | 104 | 102 | 94.4 | 0 | 0.1 | 0 | 0 | 0 | > 10 | > 10 | > 10 | > 10 | > 10 |
| C[C@]12C=CC(=O)C=C1CC[C@@H]1[C@@H]2C(=O)C[C@@]2(C)[C@H]1CC[C@]2(O)C(=O)CO [prednisone] | 98.9 | 99.2 | 95.7 | 99.6 | 95 | 95.8 | 99.6 | 100 | 89.7 | 85.3 | 100 | 105 | 98 | 101 | 90.6 | 97.8 | 98.1 | 98 | 106 | 103 | 100 | 99.3 | 104 | 97.4 | 94.6 | 0 | 0.9 | 0 | 0 | 0 | > 10 | > 10 | > 10 | > 10 | > 10 |
| CCCOC(=O)c1ccc(O)cc1 [propyl 4-hydroxybenzoate] | 102 | 97.1 | 100 | 98.9 | 102 | 92.2 | 100 | 102 | 90.2 | 109 | 108 | 102 | 107 | 89 | 102 | 92.1 | 95.4 | 88.7 | 92.1 | 102 | 108 | 95.9 | 102 | 95.3 | 100 | 0 | 0 | 0 | 0 | 0 | > 10 | > 10 | > 10 | > 10 | > 10 |
| c1ccc2nc(N3CCNCC3)ccc2c1 [quipazine] | 100 | 97.4 | 102 | 100 | 100 | 99 | 98.9 | 93.1 | 95.3 | 106 | 93.7 | 97.8 | 99.7 | 93.5 | 101 | 102 | 101 | 109 | 96.1 | 99.3 | 90.8 | 96.3 | 92.1 | 96.7 | 101 | 0 | 0 | 0 | 0 | 0 | > 10 | > 10 | > 10 | > 10 | > 10 |
| C[C@H](NCc1ccc(OCc2cccc(F)c2)cc1)C(N)=O [safinamide] | 94.2 | 102 | 99 | 105 | 108 | 97.9 | 97.4 | 101 | 102 | 100 | 98.1 | 92.5 | 98.4 | 93.4 | 96.6 | 95 | 101 | 92.2 | 102 | 108 | 101 | 89.8 | 99.5 | 97.2 | 100 | 0 | 0 | 0 | 0 | 0 | > 10 | > 10 | > 10 | > 10 | > 10 |
| O=C(O)Cn1c2c(c3cc(F)ccc31)CN(C(=O)c1cccc3ccccc13)CC2 [setipiprant] | 101 | 105 | 102 | 104 | 98.4 | 91 | 103 | 103 | 95 | 99.1 | 98 | 96.3 | 108 | 101 | 102 | 91.9 | 115 | 93.1 | 98.7 | 86.5 | 94.2 | 102 | 97.3 | 99.9 | 102 | 0 | 0 | 0 | 0.2 | 0 | > 10 | > 10 | > 10 | > 10 | > 10 |
